System: cancer-related neuropathic pain
Test: Open label dose escalation study of flupirtine, case studies JE and RM
Conditions: RM; ketamine for six days prior to the flupirtine trial

With CNC1(c2ccccc2Cl)CCCCC1=O (stereo not shown) [ketamine] the pain control was “failed to control pain”.
